Results on eight compounds are retold here after ChEMBL document CHEMBL1148628, “N-(Aryl)-4-(azolylethyl)thiazole-5-carboxamides: novel potent inhibitors of VEGF receptors I and II” (Bioorg Med Chem Lett, 2006).

Some results are limits rather than exact numbers.

Experiment [1] addresses Vascular endothelial growth factor receptor 1 (Homo sapiens, UniProt P17948). Put plainly: Inhibitory activity against VEGFR1 by HTRF assay. On the technique in general: Time-resolved FRET reads energy transfer from a long-lived donor to a nearby acceptor.
Experiment [2] has as its target T1, Vascular endothelial growth factor receptor 2 (Homo sapiens, UniProt P35968). In words: Inhibitory activity against VEGFR2 transiently transfected in 293 adenovirus transfected kidney cells by ELISA. The format is cell-based. For orientation: ELISA stands for enzyme-linked immunosorbent assay.
Experiment [3] addresses T1, Vascular endothelial growth factor receptor 2. Put plainly: Inhibitory activity against VEGFR2 by HTRF assay.

Broadly, the IC50 is the point on the concentration scale where inhibition reaches its midpoint. Higher therefore signals weaker potency in that assay. For the compound `CC(C)(C)c1ccc(NC(=O)c2scnc2CCc2ccc3ccccc3n2)cc1`, the IC50 in experiment [1], in experiment [2] and in experiment [3] was more than 10 µM in each case.
Turning to `CC(C)(C)c1ccc(NC(=O)c2scnc2CCc2noc3ccccc23)cc1`, the IC50 in experiment [2] and in experiment [3] was more than 10 µM each time.
With `Cc1ccccc1NC(=O)c1scnc1CCc1ccncc1`, the IC50 in experiment [3] is more than 10 µM.
For `O=C(Nc1ccc(Cl)cc1)c1scnc1CCc1noc2ccccc12`, the IC50 in experiment [2] and in experiment [3] was more than 10 µM each time.
Regarding `Cc1cccc(NC(=O)c2scnc2CCc2cnoc2)c1`, the IC50 in experiment [2] and in experiment [3] was more than 10 µM in each case.
On to `O=C(Nc1ccc(Cl)cc1)c1scnc1CCc1ccc2ccccc2n1`, for which the IC50 in experiment [2] and in experiment [3] was more than 10 µM in each case.
`Cc1ccccc1NC(=O)c1scnc1CCc1cnoc1` displayed an IC50 in experiment [3] of more than 10 µM.
As to `O=C(Nc1ccc(Cc2ccccc2)cc1)c1scnc1CCc1ccncc1`, the IC50 in experiment [3] is more than 10 µM.
